The results in this text go back to ChEMBL document CHEMBL2073944 (Eur J Pharmacol, 2003).

Common to all, as to assay type: functional, cell-based
The target of data set [1] is T1, Solute carrier family 22 member 11 (Homo sapiens, UniProt Q9NSA0).
T1 sequence (Q9NSA0 whole entry): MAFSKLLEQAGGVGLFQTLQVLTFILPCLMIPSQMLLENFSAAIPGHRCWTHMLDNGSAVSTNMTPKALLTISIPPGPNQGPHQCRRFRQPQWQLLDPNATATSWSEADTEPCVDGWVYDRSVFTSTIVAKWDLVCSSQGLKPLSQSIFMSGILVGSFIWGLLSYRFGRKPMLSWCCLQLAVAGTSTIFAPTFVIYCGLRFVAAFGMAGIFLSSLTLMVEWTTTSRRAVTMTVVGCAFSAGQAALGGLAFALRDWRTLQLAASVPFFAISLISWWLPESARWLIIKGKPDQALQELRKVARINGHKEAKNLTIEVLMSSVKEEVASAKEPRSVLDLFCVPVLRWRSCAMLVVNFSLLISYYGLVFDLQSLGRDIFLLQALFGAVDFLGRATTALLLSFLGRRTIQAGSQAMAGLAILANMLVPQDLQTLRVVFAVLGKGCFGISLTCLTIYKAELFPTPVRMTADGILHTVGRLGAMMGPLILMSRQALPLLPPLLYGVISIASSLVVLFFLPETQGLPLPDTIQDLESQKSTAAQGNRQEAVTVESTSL
Nature of the data set: TP_TRANSPORTER: uptake in OAT4-S2 cells. The conditions noted are these: mouse.

In data set [2] the target is T1, Solute carrier family 22 member 11. Nature of the data set: TP_TRANSPORTER: uptake&inhibition of estrone sulfate in OAT4-S2 cells.
Data set [3] concerns the target T2, Organic anion transporter 3 (Homo sapiens, UniProt Q8TCC7).
T2 sequence (Q8TCC7 whole entry): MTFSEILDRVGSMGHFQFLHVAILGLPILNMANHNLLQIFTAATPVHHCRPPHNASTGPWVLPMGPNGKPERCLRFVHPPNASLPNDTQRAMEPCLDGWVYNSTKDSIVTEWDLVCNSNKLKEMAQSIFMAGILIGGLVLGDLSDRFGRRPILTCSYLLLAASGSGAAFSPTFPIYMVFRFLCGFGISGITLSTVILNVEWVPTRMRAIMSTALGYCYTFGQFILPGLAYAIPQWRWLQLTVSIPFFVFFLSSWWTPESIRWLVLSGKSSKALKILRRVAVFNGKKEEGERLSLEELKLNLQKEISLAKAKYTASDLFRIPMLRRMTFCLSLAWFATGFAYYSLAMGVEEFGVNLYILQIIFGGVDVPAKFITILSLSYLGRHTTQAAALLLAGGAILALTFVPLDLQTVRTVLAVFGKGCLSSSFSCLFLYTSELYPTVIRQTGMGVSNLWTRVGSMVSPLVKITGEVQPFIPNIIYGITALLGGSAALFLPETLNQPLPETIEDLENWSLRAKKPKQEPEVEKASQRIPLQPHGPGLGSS
Nature of the data set: TP_TRANSPORTER: uptake in OAT3-S2 cells. The conditions noted are these: mouse.

Data set [4] deals with T1, Solute carrier family 22 member 11. Nature of the data set: TP_TRANSPORTER: inhibition of E1S uptake (E1S: 5 uM, indoxyl sulfate:500 uM) in S2 cells expressing human-OAT4.

Counter-ions that a name gives are not always drawn.

Regarding `O=S(=O)(O)Oc1c[nH]c2ccccc12` [INDOXYL SULFATE], the Activity entry in data set [1] and in data set [3] was “substrate []” each time. For the same molecule, the Ki in data set [2] and in data set [4] was 181 µM each time.
